Laboratory results published in publication PMC7972864, “Fucoxanthin Prevents 6-OHDA-Induced Neurotoxicity by Targeting Keap1” (Oxidative Medicine and Cellular Longevity, 2021).

Molecular target: Keap1 (Homo sapiens, UniProt Q14145)
Experiment: biolayer interferometry (Octet K2), biotinylated human Keap1 on the sensor
Assay type: binding

Keap1, sequence (Q14145 whole entry): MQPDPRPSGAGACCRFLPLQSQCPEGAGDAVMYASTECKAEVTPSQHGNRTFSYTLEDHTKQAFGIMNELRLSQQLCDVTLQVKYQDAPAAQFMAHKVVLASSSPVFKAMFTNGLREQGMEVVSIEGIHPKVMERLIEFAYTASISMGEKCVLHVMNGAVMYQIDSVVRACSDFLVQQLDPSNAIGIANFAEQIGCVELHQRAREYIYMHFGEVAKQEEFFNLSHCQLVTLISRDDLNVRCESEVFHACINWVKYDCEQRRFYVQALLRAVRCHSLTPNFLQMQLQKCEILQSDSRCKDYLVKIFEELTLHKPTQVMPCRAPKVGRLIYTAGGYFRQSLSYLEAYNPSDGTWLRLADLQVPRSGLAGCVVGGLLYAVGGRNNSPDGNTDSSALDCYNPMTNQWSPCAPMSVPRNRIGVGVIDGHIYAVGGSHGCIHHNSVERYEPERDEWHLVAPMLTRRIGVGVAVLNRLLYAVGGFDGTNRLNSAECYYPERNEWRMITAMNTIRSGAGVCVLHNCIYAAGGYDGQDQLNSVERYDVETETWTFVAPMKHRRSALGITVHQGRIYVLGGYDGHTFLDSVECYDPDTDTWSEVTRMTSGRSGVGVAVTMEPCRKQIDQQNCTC

CC(=O)O[C@H]1CC(C)(C)C(=C=C/C(C)=C/C=C/C(C)=C/C=C/C=C(C)/C=C/C=C(\C)C(=O)C[C@@]23O[C@]2(C)C[C@@H](O)CC3(C)C)[C@](C)(O)C1 [FUC, fucoxanthin]
Kd: 5.16E − 5
